Assay results taken from patent publication US4156777A, “Process for producing glucopyranose-nitrosourea compounds and novel compounds included therein” (Tokyo Tanabe Company, Limited, priority 1977, dated 1979).
Values after ≈ are worked out from the molar mass of the structure shown.

Tests used:
Acute toxicity (LD50) = format: in vivo, male Wister rats; details: rat, in vivo, after 1 week
Experimental: Test compounds were dissolved in physiological saline solution just before their dosage and administered to male Wister rats, intraperitoneally, intravenously and orally. After 1 week, the LD50 of each compound was calculated from the mortality of the test animals by the Lichfield-Wilcoxon Method.
i.v.: intravenous administration

[1] = Absorption and excretion of 14C-labelled compounds; format: in vivo, rats; details: rats, 14C-labelled
Experimental: The carbon atom at the 2-position of the chloroethyl group (i.e. ClCH2 CH2 -) of 6DCNU and 6MCαG was labelled with radioactive ^14 C, and the absorption and excretion of these compounds were tested using rats.

[2] = tested on: Streptococcus faecalis AHU 1085; experiment: Antibacterial activity, broth-dilution method; format: cell-based; details: Enterococcus faecalis, AHU1085
Excerpt: (§1) Using 6DCNU and 6MCαG, minimum inhibiting concentrations (referred to as "MIC") for various kinds of bacteria were estimated by means of the broth-dilution method.

[3] = tested on: Staphylococcus aureus FDA 209P JC-1; experiment: Antibacterial activity, broth-dilution method; format: cell-based; details: FDA209P
Excerpt: as §1

[4] = tested on: Escherichia coli NIHJ JC-2; experiment: Antibacterial activity, broth-dilution method; format: cell-based; details: NIHJJC2
Excerpt: as §1

Sarcina lutea ATCC 9341 = experiment: Antibacterial activity, broth-dilution method; format: cell-based; details: Micrococcus luteus, ATCC9341
Excerpt: as §1

[5] = tested on: Klebsiella pneumoniae IFM 3008; experiment: Antibacterial activity, broth-dilution method; format: cell-based; details: IFM3008
Excerpt: as §1

[6] = tested on: Pseudomonas aeruginosa IFO 3080; experiment: Antibacterial activity, broth-dilution method; format: cell-based; details: IFO3080
Excerpt: as §1

[7] = tested on: Bacillus subtilis ATCC 6633; experiment: Antibacterial activity, broth-dilution method; format: cell-based; details: ATCC6633
Excerpt: as §1

[8] = tested on: Mycobacterium smegmatis ATCC 607; experiment: Antibacterial activity, broth-dilution method; format: cell-based; details: Mycolicibacterium smegmatis, ATCC607
Excerpt: as §1

[9] = tested on: Proteus vulgaris AHU 1469; experiment: Antibacterial activity, broth-dilution method; format: cell-based; details: AHU1469
Excerpt: as §1

Shigella sonnei = experiment: Antibacterial activity, broth-dilution method; format: cell-based
Excerpt: as §1

leukemia L-1210 = experiment: Antitumor activity against leukemia L-1210 implanted in BDF1 mice (ILS, 60 days survivors); format: in vivo
Outline: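 BDF1 mice implanted with 10^6 L-1210 cells; compounds in physiological saline given 24 h later i.p. or p.o., as a single dose or daily for 5 days. ILS is the percentage of mean survival time over control; survivors at 60 days counted out of six animals.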

[10] = Solubility in water at 25° C.; format: physicochemical; details: amount soluble in 1 ml water at 25° C.
[11] = Diabetogenic activity (blood glucose concentration after intravenous administration); format: in vivo, male Wister rats
Outline: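 Starved male Wistar rats (240–260 g) given 40-96 mg/kg test compound intravenously, freshly dissolved in physiological saline. Blood glucose then measured by the glucose oxidase method.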

CO[C@H]1O[C@H](CNC(=O)N(CCCl)N=O)[C@@H](O)[C@H](O)[C@H]1O [Example 6MCαG, 1-(2-chloroethyl)-3-(methyl α-D-glucopyranos-6-yl)-1-nitrosourea]
LD50 at 168 h (Acute toxicity (LD50); ip): 42 mg/kg | LD50 at 168 h (Acute toxicity (LD50); iv): 42 mg/kg | LD50 at 168 h (Acute toxicity (LD50); po): 50 mg/kg | absorption, in words [1]: absorbed well | excretion rate, intravenous versus oral administration, in words [1]: almost the same excretion rates | main route of excretion, in words [1]: excreted mainly in the urine | MIC [2]: > 200 µg/mL | MIC [3]: > 200 µg/mL | MIC [4]: > 200 µg/mL | MIC (Sarcina lutea ATCC 9341): > 200 µg/mL | MIC [5]: > 200 µg/mL | MIC [6]: > 200 µg/mL | MIC [7]: > 200 µg/mL | MIC [8]: > 200 µg/mL | MIC [9]: > 200 µg/mL | MIC (Shigella sonnei): > 200 µg/mL | ILS (leukemia L-1210; 2.3 mg/kg/day, i.p. D1~5): > 207% | Survivors (60 days) (leukemia L-1210; 2.3 mg/kg/day, i.p. D1~5): 1/6 | ILS (leukemia L-1210; 3.2 mg/kg/day, i.p. D1~5): > 521% | Survivors (60 days) (leukemia L-1210; 3.2 mg/kg/day, i.p. D1~5): 4/6 | ILS (leukemia L-1210; 3.2 mg/kg/day, p.o. D1~5): 38% | ILS (leukemia L-1210; 4.5 mg/kg/day, i.p. D1~5): > 607% | Survivors (60 days) (leukemia L-1210; 4.5 mg/kg/day, i.p. D1~5): 5/6 | ILS (leukemia L-1210; 6.3 mg/kg/day, i.p. D1): > 241% | Survivors (60 days) (leukemia L-1210; 6.3 mg/kg/day, i.p. D1): 3/6 | ILS (leukemia L-1210; 6.3 mg/kg/day, i.p. D1~5): > 722% | Survivors (60 days) (leukemia L-1210; 6.3 mg/kg/day, i.p. D1~5): 6/6 | ILS (leukemia L-1210; 6.3 mg/kg/day, p.o. D1~5): > 397% | Survivors (60 days) (leukemia L-1210; 6.3 mg/kg/day, p.o. D1~5): 3/6 | ILS (leukemia L-1210; 9.0 mg/kg/day, i.p. D1): > 604% | Survivors (60 days) (leukemia L-1210; 9.0 mg/kg/day, i.p. D1): 5/6 | ILS (leukemia L-1210; 9.0 mg/kg/day, i.p. D1~5): > 700% | Survivors (60 days) (leukemia L-1210; 9.0 mg/kg/day, i.p. D1~5): 6/6 | ILS (leukemia L-1210; 9.0 mg/kg/day, p.o. D1~5): > 417% | Survivors (60 days) (leukemia L-1210; 9.0 mg/kg/day, p.o. D1~5): 3/6 | ILS (leukemia L-1210; 12.5 mg/kg/day, i.p. D1): > 619% | Survivors (60 days) (leukemia L-1210; 12.5 mg/kg/day, i.p. D1): 6/6 | ILS (leukemia L-1210; 12.5 mg/kg/day, i.p. D1~5): > 722% | Survivors (60 days) (leukemia L-1210; 12.5 mg/kg/day, i.p. D1~5): 6/6 | ILS (leukemia L-1210; 12.5 mg/kg/day, p.o. D1~5): > 700% | Survivors (60 days) (leukemia L-1210; 12.5 mg/kg/day, p.o. D1~5): 6/6 | ILS (leukemia L-1210; 18.0 mg/kg/day, i.p. D1): > 632% | Survivors (60 days) (leukemia L-1210; 18.0 mg/kg/day, i.p. D1): 6/6 | ILS (leukemia L-1210; 18.0 mg/kg/day, i.p. D1~5): > 493% | Survivors (60 days) (leukemia L-1210; 18.0 mg/kg/day, i.p. D1~5): 4/6 | ILS (leukemia L-1210; 18.0 mg/kg/day, p.o. D1~5): > 679% | Survivors (60 days) (leukemia L-1210; 18.0 mg/kg/day, p.o. D1~5): 6/6 | ILS (leukemia L-1210; 25.0 mg/kg/day, i.p. D1): > 625% | Survivors (60 days) (leukemia L-1210; 25.0 mg/kg/day, i.p. D1): 6/6 | ILS (leukemia L-1210; 25.0 mg/kg/day, i.p. D1~5): > 393% | Survivors (60 days) (leukemia L-1210; 25.0 mg/kg/day, i.p. D1~5): 3/6 | ILS (leukemia L-1210; 25.0 mg/kg/day, p.o. D1~5): 233% | ILS (leukemia L-1210; 35.0 mg/kg/day, i.p. D1): > 632% | Survivors (60 days) (leukemia L-1210; 35.0 mg/kg/day, i.p. D1): 6/6 | ILS (leukemia L-1210; 35.0 mg/kg/day, i.p. D1~5): > 157% | Survivors (60 days) (leukemia L-1210; 35.0 mg/kg/day, i.p. D1~5): 1/6 | ILS (leukemia L-1210; 50.0 mg/kg/day, i.p. D1): > 388% | Survivors (60 days) (leukemia L-1210; 50.0 mg/kg/day, i.p. D1): 3/6 | solubility [10]: 900 mg/mL (≈ 2750 mM) | Blood Glucose Concentration ([11]; 40 mg/kg i.v., 0 hr after treatment): 72.0 mg/dL | Blood Glucose Concentration ([11]; 40 mg/kg i.v., 2 hr after treatment): 75.9 mg/dL | Blood Glucose Concentration ([11]; 40 mg/kg i.v., 4 hr after treatment): 79.3 mg/dL | Blood Glucose Concentration ([11]; 40 mg/kg i.v., 7 hr after treatment): 71.7 mg/dL | Blood Glucose Concentration ([11]; 40 mg/kg i.v., 10 hr after treatment): 79.4 mg/dL | Blood Glucose Concentration ([11]; 40 mg/kg i.v., 24 hr after treatment): 73.1 mg/dL | Blood Glucose Concentration ([11]; 40 mg/kg i.v., 48 hr after treatment): 75.3 mg/dL | Blood Glucose Concentration ([11]; 60 mg/kg i.v., 0 hr after treatment): 71.8 mg/dL | Blood Glucose Concentration ([11]; 60 mg/kg i.v., 2 hr after treatment): 72.5 mg/dL | Blood Glucose Concentration ([11]; 60 mg/kg i.v., 4 hr after treatment): 69.8 mg/dL | Blood Glucose Concentration ([11]; 60 mg/kg i.v., 7 hr after treatment): 68.7 mg/dL | Blood Glucose Concentration ([11]; 60 mg/kg i.v., 10 hr after treatment): 67.7 mg/dL | Blood Glucose Concentration ([11]; 60 mg/kg i.v., 24 hr after treatment): 68.4 mg/dL | Blood Glucose Concentration ([11]; 60 mg/kg i.v., 48 hr after treatment): 70.8 mg/dL | Blood Glucose Concentration ([11]; 80 mg/kg i.v., 0 hr after treatment): 73.7 mg/dL | Blood Glucose Concentration ([11]; 80 mg/kg i.v., 2 hr after treatment): 82.0 mg/dL | Blood Glucose Concentration ([11]; 80 mg/kg i.v., 4 hr after treatment): 78.3 mg/dL | Blood Glucose Concentration ([11]; 80 mg/kg i.v., 7 hr after treatment): 77.8 mg/dL | Blood Glucose Concentration ([11]; 80 mg/kg i.v., 10 hr after treatment): 73.6 mg/dL | Blood Glucose Concentration ([11]; 80 mg/kg i.v., 24 hr after treatment): 76.3 mg/dL | Blood Glucose Concentration ([11]; 80 mg/kg i.v., 48 hr after treatment): 83.1 mg/dL | blood glucose concentrations versus control, in words ([11]; i.v., rats): substantially the same blood glucose concentrations as that in the control
